Measurements published in paper PMC6375636, “Monotherapy with a low-dose lipopeptide HIV fusion inhibitor maintains long-term viral suppression in rhesus macaques” (PLoS Pathogens, 2019).
Like-named read-outs stand apart in the source and are kept apart here. Peptide text beside a SMILES is read from it. * marks the point of attachment. Stearoyl = CCCCCCCCCCCCCCCCCC(=O)*

Legend:
[1] = Rat IV, 6 mg/kg, n = 6; serum, LC-MS/MS, non-compartmental
[2] = lipopeptide alone, 10 μM in PBS, representative of 2 assays
[3] = rat, in vivo, sc, 6 mg/kg
NL4-3Q40H pseudovirus = type: cell-based, HIV-1; details: T-20 resistant, mean ± SD of 3 assays in triplicate
Procedure: (§1) The inhibitory activities of inhibitors against HIV-1 pseudoviruses and replication-competent isolates were measured as described previously. Briefly, HIV-1 pseudoviruses were generated via the cotransfection of HEK293T cells with an Env-expressing plasmid and a backbone plasmid that encodes Env-defective, luciferase-expressing HIV-1 genome (pSG3Δenv). Viral stocks of replication-competent HIV-1 isolates were generated by transfecting viral molecular clones into HEK293T cells. […] Inhibitors were prepared in 3-fold dilutions, mixed with 100 TCID50 of a virus, and then incubated for 1 h at room temperature. […] Luciferase activity was measured as described above.

NL4-3V38M pseudovirus = type: cell-based, HIV-1; details: T-20 resistant, mean ± SD of 3 assays in triplicate
Procedure: as §1

NL4-3N43K pseudovirus = type: cell-based, HIV-1; details: T-20 resistant, mean ± SD of 3 assays in triplicate
Procedure: as §1

[4] = tested on: NL4-3G36S/V38M pseudovirus; type: cell-based, HIV-1; details: T-20 resistant, mean ± SD of 3 assays in triplicate
Procedure: as §1

[5] = tested on: NL4-3I37T/N43K pseudovirus; type: cell-based, HIV-1; details: T-20 resistant, mean ± SD of 3 assays in triplicate
Procedure: as §1

NL4-3V38A pseudovirus = type: cell-based, HIV-1; details: T-20 resistant, mean ± SD of 3 assays in triplicate
Procedure: as §1

NL4-3I37T pseudovirus = type: cell-based, HIV-1; details: T-20 resistant, mean ± SD of 3 assays in triplicate
Procedure: as §1

in vivo = details: rhesus monkey, sc, 3 mg/kg
Procedure: A single-cycle infection assay was performed to determine the inhibitory activity of the monkey sera on HIV-1NL4-3 pseudovirus. The 50% effective concentration was defined as the fold serum dilution that inhibited 50% of virus infection.

[6] = tested on: divergent HIV-1 subtypes (pseudoviruses with primary Envs); type: cell-based; details: mean of the 36 pseudoviruses of Table 3; for VRC01 >300000 apparently counted as 300000; read-out: Mean IC50 over divergent HIV-1 subtypes
Summary of the method: (§2)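 Steps: transfect HEK293T to produce virus, harvesting supernatants at 48 h; titrate on TZM-bl; mix 100 TCID50 with inhibitor in threefold dilutions for 1 h at room temperature; infect TZM-bl cells, 10^4 per well; after 48 h at 37°C, measure luciferase.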

[7] = tested on: HIV-1 pseudovirus, primary Env R3A; type: cell-based; details: subtype B, mean ± SD of 3 assays in triplicate
Summary of the method: as §2

[8] = tested on: HIV-1NL4-3(D36G) pseudovirus; type: cell-based
Summary of the method: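 Env-pseudotyped luciferase reporter viruses (pSG3Δenv backbone) made in HEK293T cells. 3-fold inhibitor dilutions preincubated 1 h at room temperature with 100 TCID50 virus before infection. Inhibition read as luciferase activity.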

SHIVSF162P3 = assay: Therapeutic efficacy in chronically SHIV-infected rhesus monkeys; type: in vivo, Chinese rhesus macaques

CCCCCCCCCCCCCCCCCC(=O)NCCCC[C@H](NC(=O)[C@H](CCC(=O)O)NC(=O)[C@H](CC(C)C)NC(=O)[C@H](CCCCN)NC(=O)[C@H](CCCCN)NC(=O)[C@H](CC(C)C)NC(=O)[C@H](CCC(=O)O)NC(=O)[C@H](CCC(=O)O)NC(=O)[C@H](CCC(=O)O)NC(=O)[C@H](CC(N)=O)NC(=O)[C@H](CCCCN)NC(=O)[C@H](CCCCN)NC(=O)[C@H](CCC(N)=O)NC(=O)[C@H](CCC(N)=O)NC(=O)[C@H](CCC(=O)O)NC(=O)[C@H](CCC(=O)O)NC(=O)[C@H](C)NC(=O)[C@H](CCCCN)NC(=O)[C@H](CCCCN)NC(=O)[C@H](CC(C)C)NC(=O)[C@H](CC(C)C)NC(=O)[C@H](CCC(=O)O)NC(=O)[C@H](CCC(=O)O)NC(=O)[C@@H](NC(=O)[C@H](CCCCN)NC(=O)[C@H](CCC(N)=O)NC(=O)[C@H](CCC(=O)O)NC(=O)[C@H](Cc1c[nH]c2ccccc12)NC(C)=O)[C@@H](C)CC)C(N)=O [LP-80] (Ac-WEQKIEELLKKAEEQQKKNEEELKKLEK(Stearoyl)-NH2)
Cl_F_obs/Cl_obs [1]: 21.31 ± 3.38 mL/h/kg
Helix content (%) ([2]; [θ]222 / -33,000): 52%
Tm (°C) ([2]; ellipticity at 222 nm, 20-98°C, 2°C/min): 56 °C
Vd/F [3]: 0.535 ± 0.251 L/kg
IC50 (NL4-3Q40H pseudovirus): 0.13 ± 0.02 nM
IC50 (NL4-3V38M pseudovirus): 0.13 ± 0.02 nM
IC50 (NL4-3N43K pseudovirus): 0.25 ± 0.02 nM
IC50 [4]: 0.07 ± 0.01 nM
IC50 [5]: 3.79 ± 0.05 nM
IC50 (NL4-3V38A pseudovirus): 0.23 ± 0.03 nM
IC50 (NL4-3I37T pseudovirus): 0.05 nM
Injection site reactions (ISRs) (SC 3 mg/kg during the treatment): did not cause significant injection site reactions
TG (after 1st treatment (DPI 263), before (DPI 191) 0.58 ± 0.14): 0.51 ± 0.07 mmol/L
IgA (after 1st treatment (DPI 263), before (DPI 191) 0.93 ± 0.33): 1.05 ± 0.12 g/L
IgM (after 1st treatment (DPI 263), before (DPI 191) 1.28 ± 0.6): 1.12 ± 0.56 g/L
LDL-C (after 1st treatment (DPI 263), before (DPI 191) 1.73 ± 0.44): 1.56 ± 0.37 mmol/L
Ca (after 1st treatment (DPI 263), before (DPI 191) 2.36 ± 0.11): 2.4 ± 0.06 mmol/L
HDL-C (after 1st treatment (DPI 263), before (DPI 191) 2.46 ± 0.07): 1.96 ± 0.26 mmol/L
UA (after 1st treatment (DPI 263), before (DPI 191) 3.08 ± 0.61): 3.25 ± 0.54 µmol/L
GLU (after 1st treatment (DPI 263), before (DPI 191) 4.32 ± 0.32): 5.02 ± 0.98 mmol/L
CHO (after 1st treatment (DPI 263), before (DPI 191) 4.42 ± 0.19): 3.90 ± 0.53 mmol/L
ALP (after 1st treatment (DPI 263), before (DPI 191) 4.6 ± 1.52): 4.2 ± 1.3 U/L
K (after 1st treatment (DPI 263), before (DPI 191) 4.62 ± 0.13): 4.56 ± 0.18 mmol/L
TBIL (after 1st treatment (DPI 263), before (DPI 191) 6.11 ± 1.57): 5.52 ± 0.82 µmol/L
IgG (after 1st treatment (DPI 263), before (DPI 191) 7.12 ± 0.72): 8.6 ± 1.74 g/L
GGT (after 1st treatment (DPI 263), before (DPI 191) 7.4 ± 1.82): 9.2 ± 3.83 U/L
UN (after 1st treatment (DPI 263), before (DPI 191) 8.14 ± 2): 8.38 ± 0.74 mmol/L
AST (after 1st treatment (DPI 263), before (DPI 191) 32.4 ± 3.29): 30.8 ± 3.27 U/L
CK (after 1st treatment (DPI 263), before (DPI 191) 46.4 ± 9.81): 56.6 ± 10.01 U/L
TP (after 1st treatment (DPI 263), before (DPI 191) 74 ± 4.53): 71.26 ± 1.76 g/L
TG (after 2nd treatment (DPI 508), before (DPI 325) 0.67 ± 0.13): 0.62 ± 0.21 mmol/L
IgA (after 2nd treatment (DPI 508), before (DPI 325) 0.76 ± 0.31): 0.86 ± 0.18 g/L
IgM (after 2nd treatment (DPI 508), before (DPI 325) 1.41 ± 0.29): 1.49 ± 0.29 g/L
P (after 2nd treatment (DPI 508), before (DPI 325) 1.74 ± 0.19): 1.29 ± 0.24 mmol/L
HDL-C (after 2nd treatment (DPI 508), before (DPI 325) 2.46 ± 0.31): 2.66 ± 0.45 mmol/L
UA (after 2nd treatment (DPI 508), before (DPI 325) 2.54 ± 0.28): 2.54 ± 0.73 µmol/L
CHO (after 2nd treatment (DPI 508), before (DPI 325) 3.87 ± 0.44): 4.02 ± 0.51 mmol/L
K (after 2nd treatment (DPI 508), before (DPI 325) 4.7 ± 0.2): 4.64 ± 0.26 mmol/L
TBIL (after 2nd treatment (DPI 508), before (DPI 325) 5.92 ± 0.9): 5.52 ± 0.9 µmol/L
UN (after 2nd treatment (DPI 508), before (DPI 325) 9.34 ± 1.26): 7.99 ± 0.92 mmol/L
ALT (after 2nd treatment (DPI 508), before (DPI 325) 12.8 ± 3.27): 13.2 ± 2.86 U/L
AST (after 2nd treatment (DPI 508), before (DPI 325) 27.2 ± 3.11): 31.4 ± 4.45 U/L
CK (after 2nd treatment (DPI 508), before (DPI 325) 54.6 ± 10.74): 55.4 ± 14.19 U/L
Systemic toxicities (blood biochemical parameters, CD4+ and CD8+ T lymphocytes monitored): No systemic toxicities were observed
ALP (rhesus monkey, in vivo): 7.4 ± 2.07 U/L
ALT (rhesus monkey, in vivo): 15.8 ± 3.27 U/L
Ca (rhesus monkey, in vivo): 2.19 ± 0.03 mmol/L
GGT (rhesus monkey, in vivo): 10.4 ± 1.95 U/L
IgG (rhesus monkey, in vivo): 8.52 ± 1.32 g/L
LDH (rhesus monkey, in vivo): 262.8 ± 48.26 U/L
LDL-C (rhesus monkey, in vivo): 1.32 ± 0.32 mmol/L
P (rhesus monkey, in vivo): 0.98 ± 0.07 mmol/L
TP (rhesus monkey, in vivo): 71.15 ± 2.86 g/L
AUC(0-inf) (in vivo): 601 ± 29.3 µg·h/mL
AUC(0-t) (in vivo): 601 ± 29.3 µg·h/mL
CL/F (in vivo): 5 mL/h/kg
Cmax (in vivo): 24800 ± 10800 ng/mL
MRT (in vivo): 23.7 ± 2.26 h
Tmax (in vivo): 5.83 ± 3.82 h
Vd/F (in vivo): 0.0989 ± 0.0034 L/kg
half-life (in vivo): 13.7 ± 0.86 h
IC50 [6]: 0.00558 nM
IC50 [7]: 0.00634 ± 0.00065 nM
IC50 ([8]; Fig 1, NL4-3(D36G) pseudovirus, mean ± SD of three assays in triplicate, read-out: Anti-HIV activity (IC50, pM) NL4-3 entry): 1.62 pM
IC50 ([8]; Table 4, NL4-3D36G, T-20 sensitive, mean ± SD of 3 assays in triplicate, value in parentheses behind the bound, read-out: IC50): < 10 pM
Plasma viral load (SHIVSF162P3; 1st treatment, SC 3 mg/kg once daily, monkeys K3 and K5, 8 days after treatment, detection limit 100 copies/ml): declined to below the detection limit
Viral replication during treatment (SHIVSF162P3; 1st treatment, SC 3 mg/kg once every 4 days for 4 weeks, five monkeys): fully controlled
Viral rebound during treatment (SHIVSF162P3; 2nd treatment, SC 3 mg/kg twice weekly for 6 months): no viral rebound was detected
Plasma viral load after one injection (SHIVSF162P3; 2nd treatment, SC 3 mg/kg twice weekly, all five monkeys, day 4, before: mean 4.5 log10 RNA copies/ml): below the detection limit
PBMC vDNA load (SHIVSF162P3; 2nd treatment, monkeys K1, K2, K4, K5, detection limit 100 copies/μg total DNA): undetectable levels
Time to viral load rebound after LP-80 was stopped (SHIVSF162P3; after 1st treatment, all treated monkeys): 10 to 21 days
Time to virus rebound after LP-80 cessation (SHIVSF162P3; after 2nd treatment, four monkeys (K1 to K4)): 14 to 28 days
Viral load after LP-80 withdrawal (SHIVSF162P3; after 2nd treatment, monkey K5, 2 months after withdrawal): remained undetectable
Mean PBMC vDNA load (SHIVSF162P3; after a 2-month treatment (2nd treatment), declined from 3.7, quantitative PCR): 2.3 log10 vDNA copies/μg total DNA
